Measurements: US20070020234A1, “Inhibition of tumor angiogenesis by combination of thrombospondin-1 and inhibitors of vascular endothelial growth factor” (priority 2003, published 2007)
Entries after “also recorded” stand apart in the source; their conditions may differ.

Legend:
Erk (p44/42 MAPK) = assay: Western blot of Erk (p44/42 MAPK) activation after HGF/SF stimulation; type: cell-based, human; conditions: for constitutive level of MAP kinase activity: MDA-MB-231 cells (FIG. 2A/2); for activation of Erk in response to HGF/SF: SK-LMS-1 and MDA-MB-231 cells, inhibitor 1 hour (PD98059 80 μM, U0126 40 μM), then HGF/SF 15 minutes
Experimental: (§1) FIG. 2A: HGF/SF induces activation of MAP kinase and PI3 kinase pathways in SK-LMS-1 cells and MDA-MB-231 cells. Serum-starved cells were treated with or without DMSO (control), PD98059 (80 μM), U0126 (40 μM) or LY294002 (40 μM) for 1 hour, followed by HGF/SF stimulation for 15 minutes (A time point good for observing all the tyrosine phosphorylation statuses). Whole cell extracts were prepared and the state of Met phosphorylation was detected by immunoprecipitation with anti-human Met antibody, followed by Western blot with anti-Phosphotyrosine (and/or anti-human Met antibody). For detection of Erk and Akt, Western blots were probed with anti-phospho p44/42 MAPK, anti-p44/42 MAPK, anti-phospho Akt (Ser473) or anti-Akt antibodies, respectively. FIG. 2B: Negative regulation of TSP-1 expression occurs primarily through the MAP kinase pathway, while positive regulation of VEGF expression occurs through MAP kinase and PI3 kinase pathway. Total RNAs were prepared from cells with or without inhibitor treatment and/or HGF/SF treatment. Northern Blot analyses were performed as described in FIG. 1A-caption. […] Up-regulation of VEGF was inhibited by PD98059, U0126 as well as LY294002. […]: VEGF but not TSP-1 expression was regulated by Stat3 signaling. Total RNAs were prepared from SK/HGF cells with or without overexpression of a dominant negative form of Stat3, Stat3 (17). […] FIG. 2D: LF increases TSP-1 and decreases VEGF expression in MDA-MB-231 human breast cancer cells. Cells were treated with or without indicated inhibitors for 24 hours and then total RNAs were prepared. Northern Blot analyses were performed using ^32P-radiolabelled probe for human TSP-1, VEGF or GAPDH, respectively.
HGF/SF, acting through its tyrosine kinase receptor, Met, is known to activate several intracellular signaling pathways, including MAP kinase, PI3 kinase and Stat3 (1, 16). The present inventors asked which pathways might be involved in regulating VEGF and TSP-1 expression. The present inventors treated SK-LMS-1 and MDA-MB-231 cells with (or without) various inhibitors for one hour, followed by HGF/SF stimulation for 15 minutes (FIGS. 2A/1 and 2A/2). Met receptor is tyrosine-phosphorylated in response to HGF/SF, followed by the activation of downstream targets of Erk p44/42 MAPK) and Akt/PI3 kinase. […] RNA samples from SK-LMS-1 and MDA-MB-231 cells treated with individual inhibitors followed by HGF/SF treatment for 24 hours were analyzed by Northern Blot analyses. HGF/SF-induced shut off of TSP-1 was blocked by PD98059 or U0126 but was not affected by LY294002 (FIGS. 2B/1-2B/2), nor by overexpression of Stat3B, a dominant-negative form of Stat3 (FIG. 2C) (17). […] In MDA-MB-231 cells, the present inventors observed a dramatic effect from the MEK MAP kinase inhibitors on TSP-1 (FIG. 2B/2).

VEGF expression = assay: Northern blot of VEGF expression; type: cell-based, human; conditions: for VEGF expression in the absence of HGF/SF induction: inhibitor 24 hours, LF at 1, 3 or 9 μg/ml (FIG. 2D); for expression of VEGF induced by HGF/SF: inhibitor followed by HGF/SF for 24 hours; for VEGF expression (up-regulation by HGF/SF): SK-LMS-1 and MDA-MB-231 cells (FIGS. 2B/1, 2B/2); for VEGF expression after HGF/SF treatment: HGF/SF 200 units/ml
Experimental: (§2) FIG. 1A-1C. HGF/SF up-regulates VEGF and down-regulates TSP-1 expression in SK-LMS-1 cells (FIG. 1A) and MDA-MB-231 cells (FIG. 1B) and HUVEC cells (FIG. 1C). Total RNAs were prepared from SK-LMS-1 cells, MDA-MB-231 cells or HUVEC with or without treatment of recombinant human HGF/SF (200 units/ml) at the indicated time points after stimulation. Total RNAs were also prepared from the SK/HGF cell line, a long-term culture derivative of SK-LMS-1 cells that is autocrine for human HGF/SF (15). Northern Blot was probed with ^32P-radiolabeled TSP-1, VEGF or G3PDH cDNA fragment, respectively. For HUVEC, treatment of recombinant human HGF/SF (200 units/ml) was for 24 hours in the presence or absence of fetal bovine serum (FBS) and Northern Blot analyses were performed using ^32P-radiolabelled probe for human TSP-1, VEGF or GAPDH, respectively. TSP-1 expression in HUVEC cells was decreased in response to HGF/SF treatment. However, VEGF expression was undetectable with or without HGF/SF treatment.
as §1
(§3) VEGF was also elevated in long term cultures of SK-LMS-1 cells autocrine for HGF/SF (SK/HGF, 15) (FIG. 1A). […] This effect was seen as early as 6 hours after HGF treatment and continued to 48 hours. More dramatically, TSP-1 expression was eliminated in the SK/HGF cell line.
(§4) HGF/SF, acting through its tyrosine kinase receptor, Met, is known to activate several intracellular signaling pathways, including MAP kinase, PI3 kinase and Stat3 (1, 16). The present inventors asked which pathways might be involved in regulating VEGF and TSP-1 expression. The present inventors treated SK-LMS-1 and MDA-MB-231 cells with (or without) various inhibitors for one hour, followed by HGF/SF stimulation for 15 minutes (FIGS. 2A/1 and 2A/2). Met receptor is tyrosine-phosphorylated in response to HGF/SF, followed by the activation of downstream targets of Erk p44/42 MAPK) and Akt/PI3 kinase. […] RNA samples from SK-LMS-1 and MDA-MB-231 cells treated with individual inhibitors followed by HGF/SF treatment for 24 hours were analyzed by Northern Blot analyses. HGF/SF-induced shut off of TSP-1 was blocked by PD98059 or U0126 but was not affected by LY294002 (FIGS. 2B/1-2B/2), nor by overexpression of Stat3B, a dominant-negative form of Stat3 (FIG. 2C) (17). […]

TSP-1 expression = assay: Northern blot of TSP-1 expression; type: cell-based, human; conditions: for TSP-1 expression relative to basal level after inhibitor treatment: MDA-MB-231 cells (FIG. 2B/2); for TSP-1 expression in the absence of HGF/SF induction: inhibitor 24 hours, LF at 1, 3 or 9 μg/ml (FIG. 2D); for HGF/SF-induced shut off (down-regulation) of TSP-1: SK-LMS-1 and MDA-MB-231 cells, inhibitor followed by HGF/SF for 24 hours
Experimental: as §2, §1, §3, §4

VEGF = conditions: cited from earlier work
SK/HGF cells = assay: Cell proliferation and anchorage-independent growth in vitro; type: cell-based, human; conditions: TSP-1 overexpression compared with parental SK/HGF cells in vitro
Source text: FIGS. 5A and 5B are graphs showing that overexpression of TSP-1 has no effect on cell proliferation or anchorage-independent growth compared the parental SK/HGF cells in vitro.
TSP-1 was overexpressed in SK/HGF cells to generate SK/HGF-TSP1 cells (FIG. 3A). Overexpression of TSP-1 has no effect on cell proliferation or anchorage-independent growth compared the parental SK/HGF cells in vitro (FIGS. 5A-5B). To test whether TSP-1 influences tumorigenicity, the present inventors SK/HGF and SK/HGF-TSP1 cells were subcutaneously implanted in athymic nude mice, and their tumor growth rates were compared. At early times, no growth differences were observed between the SK/HGF and SK/HGF-TSP1 groups. However, when the tumors grew to a certain size, differences between became more apparent (Student's t test p<0.025). […] TSP-1 protein expression was confirmed in the SK/HGF-TSP1 tumor group by Western blot analysis (FIG. 3D).

SK/HGF tumor xenografts = assay: Subcutaneous tumor growth of SK/HGF-TSP1 versus SK/HGF cells in athymic nude mice; type: in vivo; conditions: TSP-1 overexpression in SK/HGF cells implanted subcutaneously in athymic nude mice; p<0.025
Source text: FIG. 3A-3D. TSP-1 inhibits HGF/SF-induced tumor growth in vivo. FIG. 3A: TSP-1 was ectopically expressed in SK/HGF cells, establishing the SK/HGF-TSP 1 cell line. The expression of TSP-1 in SK/HGF-TSP1 cells was confirmed by Northern blot analysis. FIG. 3B: Tumor growth of SK-LMS cells and the influence of TSP-1 overexpression. SK-LMS-1 control cells, SK/HGF control cells and SK/HGF-TSP 1 cells (clone 26) were subcutaneously implanted in athymic nude mice, respectively. The animals were monitored for tumor growth and tumor volumes (Tvol) were measured twice a week. The Tvol values represent an average of four mice for each group (P<0.025). FIG. 3C: Visualization of the tumors at sacrifice. FIG. 3D: TSP-1 protein in tumor xenografts is derived from SK/HGF-TSP1 cells. Cell extracts were prepared from fresh tumors and TSP-1 protein was detected by anti-TSP-1 antibody under denatured condition.
TSP-1 was overexpressed in SK/HGF cells to generate SK/HGF-TSP1 cells (FIG. 3A). Overexpression of TSP-1 has no effect on cell proliferation or anchorage-independent growth compared the parental SK/HGF cells in vitro (FIGS. 5A-5B). To test whether TSP-1 influences tumorigenicity, the present inventors SK/HGF and SK/HGF-TSP1 cells were subcutaneously implanted in athymic nude mice, and their tumor growth rates were compared. […]

[1] = system: tumor angiogenesis (CD31-positive vessels); assay: CD31 immunohistochemical staining of blood vessels in tumor sections; type: in vivo, athymic nude mice; conditions: SK/HGF-TSP1 versus SK/HGF tumors; P<0.01
Source text: FIGS. 4A and 4B/1-4B/6 are a graph and photomicrographs showing that TSP-1 inhibits HGF/SF-induced tumor angiogenesis. […] Three fields (10× magnification) from each stained tumor section were photographed and the numbers of CD31-positive vessels (brown staining) were scored. The numbers represent the average number of blood vessels in sections from four tumors for each group (P<0.01).
To test whether the inhibition of tumor growth by TSP-1 was due to an extrinsic effect by preventing tumor angiogenesis, the present inventors performed immunohistochemical staining using antibodies against mouse endothelial cell surface marker CD31 to detect the number of blood vessels in SK/HGF and SK/HGF-TSP-1 tumor sections.

[2] = HUVEC, HGF/SF 200 units/ml for 24 hours

Compound | constitutive level of MAP kinase activity (Erk (p44/42 MAPK)) | activation of Erk in response to HGF/SF (Erk (p44/42 MAPK)) | VEGF expression in the absence of HGF/SF induction (VEGF expression; MDA-MB-231 cells) | expression of VEGF induced by HGF/SF (VEGF expression; MDA-MB-231 cells) | VEGF expression (up-regulation by HGF/SF) (VEGF expression) | expression of VEGF induced by HGF/SF (VEGF expression; SK-LMS-1 cells) | TSP-1 expression relative to basal level after inhibitor treatment (TSP-1 expression) | TSP-1 expression in the absence of HGF/SF induction (TSP-1 expression; MDA-MB-231 cells) | HGF/SF-induced shut off (down-regulation) of TSP-1 (TSP-1 expression) | further results
COc1cccc(-c2cc(=O)c3ccccc3o2)c1N [PD98059] | inhibited | blocked the activation of Erk | down-regulation of VEGF | suppressed | inhibited | only slightly | higher than the basal level | up-regulation of TSP-1 | blocked; also recorded: inhibited | 
VEGF-Trap: soluble decoy VEGF receptor fused to IgG; high-affinity VEGF blocker |  |  |  |  |  |  |  |  |  | tumor growth and vascularization in vivo (VEGF; Holash et al.): effectively suppressed tumor growth and vascularization; vasculature in established xenografts (VEGF; Huang et al., followed by tumor regression including lung micrometastases): abolished mature, preexisting vasculature
HGF/SF: recombinant human hepatocyte growth factor/scatter factor, ligand of the Met receptor |  |  |  |  |  |  |  |  |  | VEGF expression with or without HGF/SF treatment (VEGF expression; [2]): undetectable; VEGF expression after HGF/SF treatment (VEGF expression; MDA-MB-231 cells, persisted for 48 hours): levels of VEGF increased; VEGF expression after HGF/SF treatment (VEGF expression; SK-LMS-1 cells, up to 48 hours): induced VEGF; TSP-1 expression after HGF/SF treatment (TSP-1 expression; [2]): decreased; TSP-1 expression after HGF/SF treatment (TSP-1 expression; MDA-MB-231 cells, 24 and 48 hours after HGF treatment): down-regulation of TSP-1; TSP-1 expression after HGF/SF treatment (TSP-1 expression; SK-LMS-1 cells, HGF/SF 200 units/ml, 6 to 48 hours): significant decrease in TSP-1 expression
N#CC(=C(/N)Sc1ccccc1N)/C(C#N)=C(\N)Sc1ccccc1N [U0126] | inhibited | blocked the activation of Erk | down-regulation of VEGF | suppressed | inhibited | only slightly | higher than the basal level | up-regulation of TSP-1 | blocked; also recorded: inhibited | 
TSP-1: thrombospondin-1, angiogenesis antagonist; tested by ectopic overexpression in SK/HGF cells |  |  |  |  |  |  |  |  |  | cell proliferation or anchorage-independent growth (SK/HGF cells): no effect; HGF/SF-dependent tumor growth (SK/HGF tumor xenografts): partially inhibited; neovascularization (number of CD31-positive vessels) in tumors [1]: Decreased neovascularization
